Values after ≈ are worked out from the molar mass of the structure shown. Active and inactive are the calls of the source. The calls are words filed in the database; no cut-off is given here.
How the values were obtained:
Assay type in all cases: functional
[1] = test system: Escherichia coli; assay: Antibacterial activity against Escherichia coli ATCC 25922 after 24 hr by two-fold serial dilution test; conditions: ATCC 25922, 24 h
[2] = test system: Bacillus subtilis; assay: Antibacterial activity against Bacillus subtilis ATCC 9372 after 24 hr by two-fold serial dilution test; conditions: ATCC 9372, 24 h
[3] = test system: Staphylococcus aureus; assay: Antibacterial activity against Staphylococcus aureus ATCC 25923 after 24 hr by two-fold serial dilution test; conditions: ATCC 25923, 24 h
[4] = test system: Proteus vulgaris; assay: Antibacterial activity against Proteus vulgaris ATCC 14153 after 24 hr by two-fold serial dilution test; conditions: ATCC 14153, 24 h
[5] = test system: Escherichia coli; assay: Antibacterial activity against Escherichia coli ATCC 25922 at 400 ug/mL after 24 hr by agar well diffusion assay
[6] = test system: Staphylococcus aureus; assay: Antibacterial activity against Staphylococcus aureus ATCC 25923 at 400 ug/mL after 24 hr by agar well diffusion assay
[7] = test system: Bacillus subtilis; assay: Antibacterial activity against Bacillus subtilis ATCC 9372 at 400 ug/mL after 24 hr by agar well diffusion assay

| MIC [1] [µg/mL] | MIC [2] [µg/mL] | MIC [3] [µg/mL] | MIC [4] [µg/mL] | SMILES | diameter of the inhibition zone (DIZ) [5] | diameter of the inhibition zone (DIZ) [6] | diameter of the inhibition zone (DIZ) [7] |
| --- | --- | --- | --- | --- | --- | --- | --- |
| 1.56 | 50 | 25 | 3.13 | CN[C@@H]1[C@H](O[C@H]2[C@H](O[C@H]3[C@H](O)[C@@H](O)[C@H](N=C(N)N)[C@@H](O)[C@@H]3N=C(N)N)O[C@@H](C)[C@]2(O)C=O)O[C@@H](CO)[C@H](O)[C@H]1O.CN[C@@H]1[C@H](O[C@H]2[C@H](O[C@H]3[C@H](O)[C@@H](O)[C@H](N=C(N)N)[C@@H](O)[C@@H]3N=C(N)N)O[C@@H](C)[C@]2(O)C=O)O[C@@H](CO)[C@H](O)[C@H]1O.O=S(=O)(O)O.O=S(=O)(O)O.O=S(=O)(O)O [STREPTOMYCIN SULFATE] | – | – | – |
| – | – | – | 200 (≈ 328 µM) | COc1ccc([C@@H]2CC(=O)c3c(O)cc(O[C@@H]4O[C@H](CO[C@@H]5O[C@@H](C)[C@H](O)[C@@H](O)[C@H]5O)[C@@H](O)[C@H](O)[C@H]4O)cc3O2)cc1O [HESPERIDIN] | inactive | inactive | inactive |
| 50 (≈ 106 µM) | 50 (≈ 106 µM) | 6.25 (≈ 13.3 µM) | 12.5 (≈ 26.6 µM) | CCCCCCCCCCCCOc1cc(O)c2c(c1)O[C@H](c1ccc(OC)c(O)c1)CC2=O [7-DODECYLOXYHESPERETIN] | – | – | – |
| – | 200 (≈ 662 µM) | – | 100 (≈ 331 µM) | COc1ccc([C@@H]2CC(=O)c3c(O)cc(O)cc3O2)cc1O [HESPERETIN] | inactive | inactive | – |
| 200 (≈ 632 µM) | 200 (≈ 632 µM) | 100 (≈ 316 µM) | 50 (≈ 158 µM) | COc1cc(O)c2c(c1)O[C@H](c1ccc(OC)c(O)c1)CC2=O [7-METHOXYHESPERETIN] | – | – | – |

| SMILES | MIC [1] [µg/mL] | MIC [2] [µg/mL] | MIC [3] [µg/mL] | MIC [4] [µg/mL] | diameter of the inhibition zone (DIZ) [5] | diameter of the inhibition zone (DIZ) [6] | diameter of the inhibition zone (DIZ) [7] |
| --- | --- | --- | --- | --- | --- | --- | --- |
| CCCCOc1cc(O)c2c(c1)O[C@H](c1ccc(OC)c(O)c1)CC2=O [7-BUTOXYHESPERETIN] | 100 (≈ 279 µM) | 100 (≈ 279 µM) | 25 (≈ 69.8 µM) | 50 (≈ 140 µM) | – | – | – |
| CCCCCCCCOc1cc(O)c2c(c1)O[C@H](c1ccc(OC)c(O)c1)CC2=O [7-OCTOXYHESPERETIN] | 25 (≈ 60.3 µM) | 50 (≈ 121 µM) | 12.5 (≈ 30.2 µM) | 25 (≈ 60.3 µM) | – | – | – |
